# In patent publication US20230295088A1, “INSULIN SENSITIZERS FOR THE TREATMENT OF DIABETES MELLITUS” (University of Iowa Research Foundation, priority 2020, published 2023):
# Entries after “also recorded” stand apart in the source; their conditions may differ.
# Assays:
# PPARg = target: T1, PPARg (Homo sapiens, UniProt P37231); experiment: Luminescent PPARg reporter assay in vitro; type: cell-based
# T1 sequence (P37231 1-505): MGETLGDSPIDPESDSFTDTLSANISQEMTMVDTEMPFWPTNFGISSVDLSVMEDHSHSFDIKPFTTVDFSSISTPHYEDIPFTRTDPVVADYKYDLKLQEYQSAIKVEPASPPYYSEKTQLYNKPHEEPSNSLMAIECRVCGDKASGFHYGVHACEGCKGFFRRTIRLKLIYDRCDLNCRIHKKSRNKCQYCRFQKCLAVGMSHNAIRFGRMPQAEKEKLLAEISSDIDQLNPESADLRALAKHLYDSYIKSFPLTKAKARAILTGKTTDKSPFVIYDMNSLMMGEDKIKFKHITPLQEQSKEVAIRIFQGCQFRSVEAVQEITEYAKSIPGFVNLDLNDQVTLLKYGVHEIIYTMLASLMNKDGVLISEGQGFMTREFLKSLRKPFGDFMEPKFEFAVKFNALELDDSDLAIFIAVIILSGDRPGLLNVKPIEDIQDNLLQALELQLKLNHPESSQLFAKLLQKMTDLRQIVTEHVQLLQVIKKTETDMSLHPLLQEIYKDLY
# From the text: (§1) C3 is not liver toxic and acts through a different mechanism than TZDs. […] Deleterious side effect or TZDs are due to their agonism of PPARg.
# [1] = test system: endogenous GLUT4 in primary adipocytes; experiment: Insulin-stimulated translocation of endogenous GLUT4 in HBG4 primary adipocytes; type: cell-based, mouse
# Protocol: Generating a mouse model for measurement of GLUT4 translocation ex vivo and in-vivo. To enable the validation of identified compounds in a relevant system, a mouse model in which the coding sequence for HiBiT was inserted in the first extracellular loop of endogenous GLUT4 using CRISPR/Cas9 (HBG4 mouse) was prepared. […] GLUT4 was detected in skeletal muscle, white adipose tissue, and brown adipose tissue but not in the brain, spleen, liver, or pancreas, thus, confirming the normal distribution of HiBit-labeled GLUT4 and the ability of this assay to detect endogenous GLUT4 in mouse tissues.
# C3 potentiates insulin action in primary adipocytes and in live mice. Using HBG4 mice, insulin stimulated GLUT4 translocation of endogenous GLUT4 was measured in primary skeletal muscle fibers and primary adipocytes. Enhancement of insulin-stimulated translocation of endogenous GLUT4 was also shown in primary adipocytes in the presence of C3. In parallel dishes, increased insulin-stimulated glucose uptake in HBG4 primary adipocyte treated with C3 was found. […] To determine if the HBG4 mouse can be used to measure GLUT4 translocation in vivo, HBG4 mice were pretreated with daily IP injections of vehicle or 50 mg/Kg C3 for 3 days. […] Mice were then anesthetized and placed into an IVIS system to measure luminescence. […] Baseline signal was detected in vehicle and C3 treated HBG4 mice. […]
# lean mice = experiment: Glucose tolerance test in lean mice; type: in vivo, mouse; details: single injection before GTT
# Protocol: C3 improves glucose tolerance in lean and obese insulin resistant mice. To test whether C3 improves glucose handling, lean mice were injected with vehicle or C3 30 minutes before performing a glucose tolerance test. […] To further determine if C3 can reverse glucose intolerance, WT mice were made insulin-resistant by feeding them a high fat diet (HFD) for a period of 10 weeks. Diet induced obese (DIO) mice were then injected with vehicle or C3 for 2 weeks while remaining on HFD. […] Together those results establish in vivo efficacy of C3 for the treatment of insulin resistance.
# [2] = test system: diet-induced obese (DIO) mice; experiment: Glucose tolerance, fasting glucose and insulin in diet-induced obese (DIO) insulin-resistant mice; type: in vivo, mouse
# Protocol: To test whether C3 improves glucose handling, WT mice were made insulin-resistant by feeding them a high fat diet (HFD) for a period of 10 weeks. After 10 weeks, mice were injected with vehicle. C3 (20 mg/kg), or the TZD rosiglitazone (20 mg/kg) for 2 weeks while remaining on the HFD. […] To further test the in vivo efficacy of C3, a glucose tolerance test (GTT) was perfromed.
# To test whether C3 improves glucose handling, lean mice were injected with vehicle or C3 30 minutes before performing a glucose tolerance test. […] To further determine if C3 can reverse glucose intolerance, WT mice were made insulin-resistant by feeding them a high fat diet (HFD) for a period of 10 weeks. Diet induced obese (DIO) mice were then injected with vehicle or C3 for 2 weeks while remaining on HFD.
# [3] = test system: GLUT4 translocation in C2C12 myoblast cell line stably expressing HiBiT-GLUT4 (HBG4); experiment: HiBiT (NanoBit) luminescence GLUT4 translocation assay in HBG4 C2C12 cells; type: cell-based, mouse
# From the text: An assay was used to identify potentiators of insulin-stimulated GLUT4 translocation. In one embodiment, the assay employs Nanobit technology. This technology is based on the recombination of two complementary fragments, HiBiT and LgBiT, of the Nanoluc luciferase. HiBit was fused to an extracellular region of GLUT4 to allow for the rapid quantitation of its the surface density in live cells by adding the reconibinantly produced complementary fragment LgBiT and the luciferase substrate. Since LgBiT is not membrane permeant, only proteins at the plasma membrane are quantified. To measure GLUT4 translocation, a stable C2C12 myoblast cell line was prepared by expressing a HiBiT-tagged mouse GLUT4. […] The Chembridge Diverset library of 49,600 compounds was screened and 1264 hits were identified. A subset of those hits were selected and retested in the presence and absence of insulin.
# Development of a HTS assay for real-time measurement of GLUT4 translocation. To measure GLUT4 translocation in a homogenous and HIS amenable manner, NanoBit technology was used. This technology relies on the rapid recombination of 2 fragments of the Nanoluc luciferase (HiBit and LgBiT) with high affinity for each other. Fragments have no enzymatic activity on their own but generate a bright luminescent signal when recombined. A C2C12 myoblast cell line was prepared that stably expressed HiBiT-GLUT4 (HBG4), in which the small 11 amino acid HiBiT fragment was inserted into the first extracellular loop of GLUT4. A C-terminal mCherry was also added for microscopic detection. The C2C12 line was chosen as an in vitro model because it is derived from skeletal myoblasts and translocate GLUT4 in response to insulin. Detection of plasma membrane density of HBG4 is achieved by adding recombinant LgBit and substrate to live cells. The assay can be conducted as an endpoint where cells are incubated with insulin before measuring luminescence or as a kinetic assay by adding LgBiT and substrate at the beginning of the experiment and monitor real-time insulin-stimulated GLUT4 translocation.
# An assay to measure GLUT4 translocation in a homogenous and HIS amenable manner using NanoBit technology was developed. This technology relies on the rapid recombination of 2 fragments of the Nanoiuc luciferase (HiBit and LgBiT) with high affinity for each other. Fragments have no enzymatic activity on their own but generate a bright luminescent signal when recombined. A C2C12 myoblast cell line stably expressing HiBiT-GLUT4 (HBG4), in which the small 11 amino acid HiBiT fragment was inserted into the first extracellular loop of GLUT4 was prepared. A C-terminal mCherry was also added for microscopic detection (FIGS. 1A and B). The C2C12 line was chosen as an in-vitro model because it is derived from skeletal myoblasts and translocates GLUT4 in response to insulin. Detection of plasma membrane density of HBG4 is achieved by adding recombinant LgBit and substrate to live cells (FIG. 1C). The assay can be conducted as a kinetic assay by adding LgBiT and substrate at the beginning of the experiment and monitoring real-time insulin-stimulated GLUT4 translocation (FIGS. 1D and E).
# [4] = test system: GLUT4 translocation in HBG4 mice; experiment: In vivo GLUT4 translocation in HBG4 mice (IVIS luminescence); set-up: species or system mouse; details: HBG4 mice, daily IP 50 mg/Kg for 3 days, insulin IP
# Protocol: C3 potentiates insulin action in primary adipocytes and in live mice. Using HBG4 mice, insulin stimulated GLUT4 translocation of endogenous GLUT4 was measured in primary skeletal muscle fibers and primary adipocytes. Enhancement of insulin-stimulated translocation of endogenous GLUT4 was also shown in primary adipocytes in the presence of C3. In parallel dishes, increased insulin-stimulated glucose uptake in HBG4 primary adipocyte treated with C3 was found. […] To determine if the HBG4 mouse can be used to measure GLUT4 translocation in vivo, HBG4 mice were pretreated with daily IP injections of vehicle or 50 mg/Kg C3 for 3 days. On the day of the experiment, mice were injected with vehicle or insulin IP followed by a subcutaneous injection of LgBiT and substrate around the leg muscles. Mice were then anesthetized and placed into an IVIS system to measure luminescence. […] Baseline signal was detected in vehicle and C3 treated HBG4 mice. […]
# DIO HBG4 mice were treated with vehicle or C59 for 2 weeks and injected i.v. with an adenovirus coding for a secreted form of LgBiT (allowing LgBiT production and secretion predominantly by the liver into the circulation) 2 days prior to the experiment. Animal were then injected with saline or insulin 10 minutes before i.v. injection of substrate and luminescence imaging using an IVIS system.
# primary adipocytes = experiment: Insulin-stimulated glucose uptake in primary adipocytes; type: cell-based, mouse
# Protocol: C3 potentiates insulin action in primary adipocytes and in live mice. Using HBG4 mice, insulin stimulated GLUT4 translocation of endogenous GLUT4 was measured in primary skeletal muscle fibers and primary adipocytes. Enhancement of insulin-stimulated translocation of endogenous GLUT4 was also shown in primary adipocytes in the presence of C3. In parallel dishes, increased insulin-stimulated glucose uptake in HBG4 primary adipocyte treated with C3 was found. […] To determine if the HBG4 mouse can be used to measure GLUT4 translocation in vivo, HBG4 mice were pretreated with daily IP injections of vehicle or 50 mg/Kg C3 for 3 days. On the day of the experiment, mice were injected with vehicle or insulin IP followed by a subcutaneous injection of LgBiT and substrate around the leg muscles. Mice were then anesthetized and placed into an IVIS system to measure luminescence. […] Baseline signal was detected in vehicle and C3 treated HBG4 mice. […] It also further confirms the insulin-sensitizing activity of C3 in vivo.
# liver = experiment: Liver toxicity markers and liver triglyceride in treated mice; type: in vivo, mouse
# From the text: as §1
# [5] = DIO mice, 2 weeks treatment (20 mg/kg)
compound,measurement,setting,value
O=C(Nc1ccc(Cl)c(Cl)c1)C12CC3CC(CC(C3)C1)C2 [Compound C3],PPARg agonist activity,PPARg,did not activate; also recorded: no agonist activity; also recorded: neither C3 nor C59 have PPARγ agonist activity
same,insulin-stimulated translocation of endogenous GLUT4,[1],Enhancement
same,glucose clearance in glucose tolerance test,lean mice,drastically improved; also recorded: significantly accelerated
same,glucose handling in glucose tolerance test,"[2]; DIO mice (HFD 10 weeks), injected for 2 weeks (20 mg/kg)",drastically improved; also recorded: rapidly cleared glucose; also recorded: very significant improvement
same,insulin response to the glucose challenge,"[2]; DIO mice, 20 mg/kg for 2 weeks, GTT",normal insulin response
same,fasting blood glucose,[2]; [5],significantly decreased
same,fasting plasma insulin,[2]; [5],significantly decreased
same,GLUT4 translocation on its own,"[3]; in the absence of insulin, HBG4 C2C12 cells",no effect
same,insulin-stimulated GLUT4 translocation,"[3]; in the presence of insulin, WT HBG4 C2C12 cells",significantly potentiated; also recorded: enhanced
same,insulin-induced luminescence (GLUT4 translocation) in vivo,[4],further increased
same,insulin-stimulated glucose uptake,primary adipocytes,significantly improved; also recorded: increased
same,liver triglyceride content,"liver; DIO mice, compared to saline treated mice",significant decrease
same,plasma level of liver enzyme ALT,liver; treated mice,Neither liver toxicity markers were increased
same,plasma level of liver enzyme AST,liver; treated mice,Neither liver toxicity markers were increased
